This note sets out measurements from patent US10085990B2, “Tricyclic compounds as modulators of TNF-α synthesis and as PDE4 inhibitors” (vTv Therapeutics LLC, priority 2008, dated 2018).

This experiment relates to TNF synthesis in human PBMC. The experiment in a line: Human PBMC TNF Synthesis Assay. It is filed as cell-based. The conditions noted are these: LPS-stimulated human PBMC, overnight incubation, TNF ELISA; read-out: TNF inhib. The method, then: Human PBMC TNF Synthesis Assay
Human PBMC were obtained by from a healthy human donor leuko pak. Typically, all donors were pre-screened for STD, HIV and have been given a physical by a physician. One to two ampoules were thawed at 37° C. and then resuspended in 45 to 85 mL of RPMI+10% FBS to a final concentration of 2.5×10^6 cells/mL. Resuspended cells were filtered to remove any large clumps.
Prepare compounds for addition to cells: All compounds were DMSO stocks at 20 mM. Working stock for cell testing were prepared as 4× concentrated material in RPMI+10% FBS. Compounds were added to a polypropylene block and then diluted with the appropriate amount of RPMI+10% FBS. Typically 2.6 μL of 20 mM stock was diluted to 650 μL final volume to yield an 80 μM starting concentration in the stocks. RPMI was added to DMSO stock by pipetting into the tube or block. The compounds were then serial diluted with RPMI+10% FBS. The final DMSO concentrations were not greater than 0.5% in the assay.
Compounds were added to the cells as 4× working stock. 50 μL of compound was prepared above is added to the cells and re-equilibrated in a humidified 5% CO2 incubator at 37° C. for 30 minutes.
A stock of LPS was prepared using RPMI+10% FBS. To prepare the stock, 2.8 μL of LPS (5 mg/mL; Sigma Cat #L3024) was added to 35 mL of media. 50 μL of the LPS in media was added to the cells. Control cultures without LPS received only RPMI+10% FBS. After an overnight incubation at 37° C., the cell culture supernatant was harvested and stored in a polypropylene 96 well plate.
Samples were tested for TNF as per the manufacturer's instructions (TNF ELISA; R&D Systems, Cat #DY210). The samples were serially diluted with PBS+1% BSA to the appropriate dilution condition for the cell prep, typically a 1:4 or 1:6 dilution.

The structures appear in SMILES notation. pIC50: −log10 of the molar value. Structures can show the parent of a compound that is named as a salt.

Take `CCNC(=O)N1CCC(n2c(=O)n(-c3cccc(Cl)c3)c(=O)c3cnc4c(OC)cccc4c32)CC1` [Example 97, 4-[3-(3-Chloro-phenyl)-7-methoxy-2,4-dioxo-3,4-dihydro-2H-pyrimido[5,4-c]quinolin-1-yl]-piperidine-1-carboxylic acid ethylamide]: the pIC50 was 9.22. With `COc1cccc2c1ncc1c(=O)n(-c3cccc(Cl)c3)c(=O)n(C3CCN(C(=O)NC(C)C)CC3)c12` [Example 98, 4-[3-(3-Chloro-phenyl)-7-methoxy-2,4-dioxo-3,4-dihydro-2H-pyrimido[5,4-c]quinolin-1-yl]-piperidine-1-carboxylic acid isopropylamide] the figure was 9.52; with `COc1cccc2c1ncc1c(=O)n(-c3ccccc3Cl)c(=O)n(C3CCC(C)CC3)c12` (centres unmarked) [Example 99, 3-(2-Chloro-phenyl)-7-methoxy-1-(4-methyl-cyclohexyl)-1H-pyrimido[5,4-c]quinoline-2,4-dione], 7.70; with `COc1cccc2c1ncc1c(=O)n(-c3cccc(Cl)c3)c(=O)n([C@H]3CC[C@H](C(=O)O)CC3)c12` [Example 103, Trans-4-[3-(3-Chloro-phenyl)-7-methoxy-2,4-dioxo-3,4-dihydro-2H-pyrimido[5,4-c]quinolin-1-yl]-cyclohexanecarboxylic acid.hydrochloride], 9.00.

On to `COc1cccc2c1ncc1c(=O)n(-c3cccc(Cl)c3)c(=O)n(C3CCCCC3)c12` [Example 106, 3-(3-Chloro-phenyl)-1-cyclohexyl-7-methoxy-1H-pyrimido[5,4-c]quinoline-2,4-dione], for which the pIC50 is 8.40.

In the case of `COc1cccc2c1ncc1c(=O)n(-c3ccc4c(c3)OCO4)c(=O)n(C3CCN(C(=O)OC(C)(C)C)CC3)c12` [Example 107, 4-(3-Benzo[1,3]dioxol-5-yl-7-methoxy-2,4-dioxo-3,4-dihydro-2H-pyrimido[5,4-c]quinolin-1-yl)-piperidine-1-carboxylic acid tert-butyl ester], the pIC50 was 9.00. With `COc1cccc2c1ncc1c(=O)n(-c3ccc4c(c3)OCO4)c(=O)n(C3CCNCC3)c12` [Example 108, 3-Benzo[1,3]dioxol-5-yl-7-methoxy-1-piperidin-4-yl-1H-pyrimido[5,4-c]quinoline-2,4-dione.dihydrochloride] the figure was 6.35.

For the compound `COc1cccc2c1ncc1c(=O)n(-c3cccc(SC)c3)c(=O)n(C3CCCC3)c12` [Example 111, 1-Cyclopentyl-7-methoxy-3-(3-methylsulfanyl-phenyl)-1H-pyrimido[5,4-c]quinoline-2,4-dione], the pIC50 is 7.13. Then `COc1cccc2c1ncc1c(=O)n(-c3cccc(S(C)(=O)=O)c3)c(=O)n(C3CCCC3)c12` [Example 112, 1-Cyclopentyl-3-(3-methanesulfonyl-phenyl)-7-methoxy-1H-pyrimido[5,4-c]quinoline-2,4-dione], with 6.55; and `COc1cccc2c1ncc1c(=O)n(-c3cccc(Cl)c3)c(=O)n([C@@H]3CCN(C(=O)OC(C)(C)C)C3)c12` [Example 113, 3-[(R)-3-(3-Chloro-phenyl)-7-methoxy-2,4-dioxo-3,4-dihydro-2H-pyrimido[5,4-c]quinolin-1-yl]-pyrrolidine-1-carboxylic acid tert-butyl ester], with 9.52. With `COc1cccc2c1ncc1c(=O)n(-c3cccc(Cl)c3)c(=O)n([C@@H]3CCNC3)c12` [Example 114, (R)-3-(3-Chloro-phenyl)-7-methoxy-1-pyrrolidin-3-yl-1H-pyrimido[5,4-c]quinoline-2,4-dione.dihydrochloride] the figure was 7.51; with `COc1cccc2c1ncc1c(=O)n(-c3cccc(Cl)c3)c(=O)n([C@H]3CCN(C(=O)OC(C)(C)C)C3)c12` [Example 116, 3-[(S)-3-(3-Chloro-phenyl)-7-methoxy-2,4-dioxo-3,4-dihydro-2H-pyrimido[5,4-c]quinolin-1-yl]-pyrrolidine-1-carboxylic acid tert-butyl ester], 8.70. Then `COc1cccc2c1ncc1c(=O)n(-c3cccc(Cl)c3)c(=O)n([C@H]3CCNC3)c12` [Example 117, (S)-3-(3-Chloro-phenyl)-7-methoxy-1-pyrrolidin-3-yl-1H-pyrimido[5,4-c]quinoline-2,4-dione.dihydrochloride], with 6.00; and `COc1cccc2c1ncc1c(=O)n(-c3ccc4c(c3)OCCO4)c(=O)n(C3CCCC3)c12` [Example 120, 1-Cyclopentyl-3-(2,3-dihydro-benzo[1,4]dioxin-6-yl)-7-methoxy-1H-pyrimido[5,4-c]quinoline-2,4-dione], with 6.62; and `COC(=O)N1CCC(n2c(=O)n(-c3cccc(Cl)c3)c(=O)c3cnc4c(OC)cccc4c32)CC1` [Example 124, 4-[3-(3-Chloro-phenyl)-7-methoxy-2,4-dioxo-3,4-dihydro-2H-pyrimido[5,4-c]quinolin-1-yl]-piperidine-1-carboxylic acid methyl ester], with 4.30.

Take `COc1cccc2c1ncc1c(=O)n(-c3cccc(Cl)c3)c(=O)n(CC3CCN(S(C)(=O)=O)CC3)c12` [Example 126, 3-(3-Chloro-phenyl)-1-(1-methanesulfonyl-piperidin-4-ylmethyl)-7-methoxy-1H-pyrimido[5,4-c]quinoline-2,4-dione]: the pIC50 was 8.70. Then `COc1cccc2c1ncc1c(=O)n(-c3cccc(Cl)c3)c(=O)n([C@H]3CC[C@H](NS(C)(=O)=O)CC3)c12` [Example 127, N-{4-[(S)-3-(3-Chloro-phenyl)-7-methoxy-2,4-dioxo-3,4-dihydro-2H-pyrimido[5,4-c]quinolin-1-yl]-trans-cyclohexyl}-methanesulfonamide], with 8.22.
